Values quoted from earlier work in patent US8840932B2, “Antiseptic compositions and methods” (priority 2002, dated 2014).

Settings: 25° C.

For II [elemental iodine, iodine], the solubility in water is given as 0.03 wt-%.
